Assay results taken from paper PMC10483858 (Molecular Cancer, 2023).

Assays:
[1] = tested on: hPD-1/mPD-L1 immune checkpoint (Jurkat-ECs with B16-F10/TCRAct cells); conditions: ref [12]; cited from earlier work
Procedure: To evaluate the bioactivity of the pAC65 peptide, cell-based immune checkpoint blockade assays, T-cell activation (TCA) assay, and a viability assay were performed.

[2] = tested on: hPD-1/hPD-L1 immune checkpoint (Jurkat-ECs with CHO/TCRAct/PD-L1 cells); assay: Immune checkpoint blockade (ICB) assay, hPD-1/hPD-L1 setup; format: cell-based, human; conditions: for blockade of hPD-1/hPD-L1, restored activation of Jurkat-ECs (in words): 24-hour incubation, in parallel to hPD-1/mPD-L1 assay, Fig. 2C
Procedure: (§1) The peptide was tested along with three therapeutic antibodies, atezolizumab, avelumab, and durvalumab.
(§2) Data points represent mean ± SD values from 4–6 independent experiments. […] Triton X-100-treated cells and cells without the addition of a Redox Dye were used as baseline controls. […] In the assay, three antibodies (atezo. – atezolizumab, ave. – avelumab, durva. – durvalumab) and the peptide pAC65 were used. […] The graphs show fractions of positive cells and represent cumulative data from 3–4 donors.
These cell lines were cultured in RPMI 1640 medium (Biowest) supplemented with 10% fetal bovine serum (FBS, Biowest) and […] L-glutamine (Biowest). The selection antibiotics: G418 (250 μg/mL, InvivoGen) and Hygromycin B Gold (50 μg/mL, InvivoGen) were also added to the culture medium as per application.
The assay was performed according to the manufacturer’s protocol (Promega). […] The dilutions of monoclonal antibodies were prepared in the assay buffer. Followed by a 6-hour (routinely) or 24-hour (for testing bioactivity in parallel to the hPD-1/mPD-L1 ICB assay) incubation at 37°C and 5% CO2, and an additional 20 min of incubation with the luminescence reagent (Bio-Glo™ Luciferase Assay System, Promega) at room temperature, activation of Jurkat ECs, reflected by luciferase activity, was monitored by luminescence measurements on a Spark microplate reader (Tecan). […] Data points represent mean ± SD values from four to eight independent experiments. EC50 values as half-maximal effective concentrations were calculated from the Hill curve fitting to the experimental data using Origin Pro 2020 software (OriginLab).

[3] = tested on: PD-L1/CD80 and PD-1/PD-L1 pathways; conditions: ref [14]; cited from earlier work
[4] = tested on: hPD-1/mPD-L1 immune checkpoint (Jurkat-ECs with B16-F10/TCRAct cells); assay: Immune checkpoint blockade (ICB) assay, hPD-1/mPD-L1 setup; format: cell-based, human (hPD-1); conditions: B16-F10/TCRAct cells treated with 20 ng/ml mouse IFN-γ for 48 h; 24 h co-culture, Fig. 2D; three independent experiments
Procedure: as §1, §2
Mouse skin melanoma B16-F10 cell line was purchased from the American Type Culture Collection (ATCC) and cultured in RPMI 1640 medium (Biowest) supplemented with 10% fetal bovine serum (FBS, Biowest) and […] L-glutamine (Biowest). The generation of the B16-F10 cells overexpressing TCR-Activator (maAPCs) clone 3A5 was described in our previous work (Magiera-Mularz et al., 2021). […]
B16-F10/TCRAct cells (maAPCs) were seeded on 96-well white bottom plates at the density of 2,000 cells/well and treated with 20 ng/ml of mouse recombinant IFN-γ (Thermo Fisher Scientific) for 48 hours before the ICB assay. […] After 24 hours (37°C, 5% CO2) and 20 min of additional incubation with the luminescence reagent (Bio-Glo™ Luciferase Assay System, Promega) at room temperature, activation of Jurkat ECs was monitored by luminescence measurements on a Spark microplate reader (Tecan). […]

| Molecule | specificity towards hPD-L1 / failure to target mouse PD-L1 (previous studies) [1] | blockade of hPD-1/hPD-L1, restored activation of Jurkat-ECs (in words) [2] | EC50 ([2]; luciferase luminescence, 6-hour incubation (routinely), 37°C, 5% CO2, 0.1% DMSO (pAC65), Hill fit, 4–6 independent experiments, read-out: EC50, activation of Jurkat-ECs) | blocking of both PD-L1/CD80 and PD-1/PD-L1 pathways [3] | blockade of hPD-1/mPD-L1, restored activation of Jurkat-ECs (in words) [4] |
| --- | --- | --- | --- | --- | --- |
| Cc1cc(CN[C@H](CO)C(=O)O)c(OCc2cccc(C#N)c2)cc1OCc1cccc(-c2ccc3c(c2)OCCO3)c1C [BMS-1001] | specificity towards the hPD-L1 protein | – | – | – | – |
| Cc1c(COc2cc(OCc3cccc(C#N)c3)c(CN3C[C@H](O)C[C@@H]3C(=O)O)cc2Cl)cccc1-c1ccc2c(c1)OCCO2 [BMS-1166] | specificity towards the hPD-L1 protein | – | – | – | – |
| atezolizumab: therapeutic PD-L1-blocking monoclonal antibody (Selleckchem) | – | efficiently blocked the hPD-1/hPD-L1 immune checkpoint | 0.14 nM | Blocking of both PD-L1/CD80 and PD-1/PD-L1 pathways has also been documented | – |
| avelumab: therapeutic PD-L1-blocking monoclonal antibody (MedChemExpress) | – | restored the activation of Jurkat-ECs blocked with either the hPD-L1-expressing or mPD-L1 expressing cells | – | Blocking of both PD-L1/CD80 and PD-1/PD-L1 pathways has also been documented | restored the activation of Jurkat-ECs blocked with either the hPD-L1-expressing or mPD-L1 expressing cells |
| durvalumab: therapeutic PD-L1-blocking monoclonal antibody (Selleckchem) | – | efficiently blocked the hPD-1/hPD-L1 immune checkpoint | – | Blocking of both PD-L1/CD80 and PD-1/PD-L1 pathways has also been documented | atezolizumab but not durvalumab was able to block the hPD-1/mPD-L1 immune checkpoint |
